Data published in patent US11331298B2, “Powder solid dispersions comprising quercetin, process for their preparation and formulations thereof” (INDENA S.P.A., priority 2017, dated 2022).

Assays:
[1] = Solubility studies in simulated gastro-intestinal fluids; format: physicochemical; conditions: excess analyte, magnetic stirring 2 hours, HPLC
Description: Quercetin dihydrate, quercetin powder solid dispersion obtained in Example 1 and a mechanical (physical) mixture of the component of the said solid dispersion were subjected to comparative solubility experiments, in the presence of high excess of analyte, using the following simulated gastro-intestinal fluids: • fasted state simulated gastric fluid; • fasted state simulated intestinal fluid; • fed state simulated intestinal fluid.
Equivalent amounts of quercetin were used during the experiments. Quercetin dihydrate, quercetin powder solid dispersion of Example 1 and the mechanical (physical) mixture were kept under magnetic stirring for 2 hours. The supernatant was filtered and the quercetin concentration was calculated by HPLC analysis.

[2] = Single dose randomized, crossover pharmacokinetic study in healthy volunteers; format: in vivo, human; conditions: fasting, single oral dose, 500 mg film-coated tablets, mean
Description: A single dose randomized, crossover pharmacokinetic study in healthy volunteers under fasting conditions was performed using film-coated tablets containing 500 mg of (unformulated) quercetin dihydrate, 500 mg of quercetin (40%) powder solid dispersion (corresponding to 200 mg of quercetin dihydrate) and 250 mg of quercetin (40%) powder solid dispersion (corresponding to 100 mg of quercetin dihydrate).

Quercetin concentration (solubility) ([1]; Fasted state simulated gastric fluid (pH 1.6)): <LOD
Quercetin concentration (solubility) ([1]; Fasted state simulated intestinal fluid (pH 6.5)): 7.5 µg/mL
Quercetin concentration (solubility) ([1]; Fed state simulated intestinal fluid (pH 5.0)): 19.1 µg/mL
Cmax [2]: 10.93 ng/mL
AUC(0-inf) ([2]; human, in vivo): 90.1 ng·h/mL
SMILES: O=c1c(O)c(-c2ccc(O)c(O)c2)oc2cc(O)cc(O)c12 [Quercetin dihydrate, 2-(3,4-Dihydroxyphenyl)-3,5,7-trihydroxy-4H-chromen-4-one]
